In patent US5502166A, “NMDH receptor proteins and genes encoding the same” (Mitsubishi Chemical Corporation, priority 1992, dated 1996):
Where two headings read alike, the source gives them in different places.

Legend:
[1] = target: T1, ε2/.zeta.1 heteromeric NMDA receptor channel (Mus musculus, UniProt P35438+Q01097); assay: Electrophysiological test in Xenopus oocytes expressing ε2 and .zeta.1 subunits; format: cell-based; settings: for response to kainate / AMPA: 100 μM
T1 construct: expressed in transfected cells; host or cells: Xenopus oocytes injected with in vitro transcribed mRNAs
Procedure: (§1) Then, by using the pBKSA ε2 cut by NotI and the pBKSA ε3 cut by XbaI as molds and using T3 RNA polymerase produced by BRL Co., ε2-specific mRNAs and ε3-specific mRNAs were synthesized in vitro. Transcription was carried out in the same manner as in Example 1.
(§2) Effects of the competitive antagonist were examined with 10-fold concentration of the antagonist concentration used when examining the EC50 values.
Transcription was carried out in the same manner as in Example 1.

[2] = target: T2, ε1/.zeta.1 heteromeric NMDA receptor channel (Mus musculus, UniProt P35436+P35438); assay: Electrophysiological test (micropipet voltage clamp) in Xenopus oocytes expressing ε1 and .zeta.1 subunits; format: cell-based
T2 construct: expressed in transfected cells; host or cells: Xenopus oocytes injected with in vitro transcribed mRNAs
Source text: as §2

[3] = tested on: ε2 subunit; assay: Electrophysiological test in Xenopus oocytes expressing only the ε2 subunit; format: cell-based, mouse; settings: ε2 mRNA alone
Procedure: (§6) The oocytes used were obtained from mature female Xenopus and separated into one oocyte in a Barth medium by using sharp tweezers and scissors. The concentration of the mRNAs was 0.1 μg/μl and 10 μl thereof was injected into about 100 oocytes in an amount of 50 to 100 nl per one oocyte. The mRNAs were injected under a microscope by using a capillary and a micromanipulator. After the injection, the oocytes were incubated at 19° C. for one day in a Barth medium containing 0.1 mg/ml of gentamicin ("The Control of Gene Expression in Animal Development, Clarendon, Oxford (1974)). Then, the oocytes were allowed to stand in 1 mg/ml of collagenase at room temperature for 1 hour, and then extracellular skins were removed under a microscope by using sharp tweezers. These oocytes were returned to the Barth medium containing 0.1 mg/ml of gentamicin, incubated again at 19° C. for one day and then used for an electrophysiological test.
(§7) The electrophysiological test was carried out by a conventional micropipet voltage clamp method. Oocytes generally have a membrane potential of about -30 to -40 mV. […] In the present experiment system, flow of these ions were detected, and opening and closing of the ion channel were observed. […]

[4] = tested on: ε3 subunit; assay: Electrophysiological test in Xenopus oocytes expressing only the ε3 subunit; format: cell-based, mouse; settings: ε3 mRNA alone
Procedure: as §6, §7

[5] = target: ε3/.zeta.1 heteromeric NMDA receptor channel (Mus musculus, UniProt P35438+Q01098); assay: Electrophysiological test in Xenopus oocytes expressing ε3 and .zeta.1 subunits; format: cell-based; settings: for response to kainate / AMPA: 100 μM
Procedure: as §1, §2

[6] = target: ε4/.zeta.1 heteromeric NMDA receptor channel (Mus musculus, UniProt P35438+Q03391); assay: Electrophysiological test in Xenopus oocytes expressing ε4 and .zeta.1 subunits; format: cell-based
Procedure: FIGS. 1(a) and 1(b) show functional expression of ε4/.zeta.1 heteromeric NMDA receptor channel cDNAs in frog oocytes. Current responses are measured at -70 mV membrane potential in normal Ringer's solution. […] FIG. 1(b) represent effects of 500 μM D-2-amino-5-phosphonovalerate (APV) (Glu/Gly +APV) and 100 μM 7-chlorokynurenate (7 CK) (Glu/Gly +7 CK) on a current response of the ε4/.zeta.1 heteromeric channel to Glu/Gly, respectively.
Current responses are measured at -70 mV membrane potential in a Ba^2+ -Ringer's solution.
Then, by using the pSPGR ε4 plasmid cut by EcoRI as a template and using SP6 RNA polymerase, ε4-specific mRNAs were synthesized in vitro. Transcription was carried out in the same manner as in Example 1.

[7] = tested on: ε1/.xi.1, ε2/.xi.1 and ε3/.xi.1 heteromeric NMDA receptor channels; assay: Comparison of ε1/, ε2/ and ε3/.xi.1 heteromeric channels in Xenopus oocytes; format: cell-based, mouse; settings: 10-fold concentration used when examining EC50
Source text: as §2

[8] = tested on: ε1/.xi.1, ε2/.xi.1, ε3/.xi.1 and ε4/.xi.1 heteromeric NMDA receptor channels; assay: Comparison of ε1/, ε2/, ε3/ and ε4/.xi.1 heteromeric channels in Xenopus oocytes; format: cell-based, mouse
Procedure: as §6
(§8) The electrophysiological test was carried out by a conventional micropipet voltage clamp method. […] In the present experiment system, flow of these ions were detected, and opening and closing of the ion channel were observed. […]

[9] = tested on: ε2/.zeta.1-N598Q NMDA receptor channel; assay: Electrophysiological test in Xenopus oocytes expressing modified ε2/.zeta.1-N598Q channel; format: cell-based, mouse
Source text: (§3) In the figures, FIGS. 4(a), 4(b), 4(c) and 4(d) represent an ε2/.zeta.1 NMDA receptor channel, an ε2/.zeta.1-N598Q (a modified glutamate receptor shown in Sequence ID No. 9 of the sequence table) NMDA receptor channel, an ε2-N589Q (a modified glutamate receptor shown in Sequence ID No. 8 of the sequence table)/.zeta.l NMDA receptor channel and an ε2-N589Q/.zeta.1-N598Q NMDA receptor channel, respectively.
(§4) FIGS. 5(a) to 5(d) show current-voltage relationships of wild type and mutant heteromeric channels in the presence of 1 mM Mg^2+ ( ) and in the absence thereof (.smallcircle.). In the figures, FIGS. 5(a) , 5(b) , 5(c) and 5(d) represent an ε2/.zeta.1 NMDA receptor channel, an ε2/.zeta.1-N598Q NMDA receptor channel, an ε2-N589Q/.zeta.1 NMDA receptor channel and an ε2-N589Q/.zeta.1-N598Q NMDA receptor channel, respectively.
(§5) In the figure, .largecircle., , , .quadrature. and represent an ε2/.zeta.1 NMDA receptor channel, an ε2/.zeta.1-N598Q NMDA receptor channel, an ε2-N589Q/.zeta.1 NMDA receptor channel, an ε2-N589Q/.zeta.1-N598Q NMDA receptor channel and an ε2/.zeta.1-ZAZ (a mutant glutamate receptor shown in Sequence ID No. 10 of the sequence table) NMDA receptor channel, respectively. […]

[10] = tested on: ε2-N589Q/.zeta.1 NMDA receptor channel; assay: Electrophysiological test in Xenopus oocytes expressing modified ε2-N589Q/.zeta.1 channel; format: cell-based, mouse
Source text: as §3, §4, §5

[11] = tested on: ε2-N589Q/.zeta.1-N598Q NMDA receptor channel; assay: Electrophysiological test in Xenopus oocytes expressing modified ε2-N589Q/.zeta.1-N598Q channel; format: cell-based, mouse
Source text: as §3, §4, §5

[12] = tested on: ε1 subunit; assay: Electrophysiological test in Xenopus oocytes expressing only the ε1 subunit; format: cell-based, mouse; settings: 10 μM L-glutamate and 100 μM NMDA, even in the presence of 10 μM glycine
Procedure: One or both of ε1 subunit-specific mRNAs and .zeta.1.NMDA type glutamate receptor subunit-specific mRNAs (mRNAs derived from mice, coding an amino acid sequence different in the 213rd (Glu→Asp) and the 460th (Ile→Val) from the N terminal end from the amino acid sequence which is coded by cDNA.-NMDA R1 of a rat-NMDA type glutamate receptor cloned by Nakanishi et al. ("Nature", 354, pp. 31 to 37 (1991))) were injected into Xenopus oocytes.
The oocytes used were obtained from mature female Xenopus and separated into one oocyte in a Barth medium by using sharp tweezers and scissors. The concentration of the mRNAs was 0.1 μg/μl and 10 μl thereof was injected into about 100 oocytes in an amount of 50 to 100 nl per one oocyte. The mRNAs were injected under a microscope by using a capillary and a micromanipulator. After the injection, the oocytes were incubated at 19° C. for one day in a Barth medium containing 0.1 mg/ml of gentamicin ("The Control of Gene Expression in Animal Development, Clarendon, Oxford (1974)). […]
as §8

[13] = target: .zeta.1 NMDA type receptor subunit (Mus musculus, UniProt P35438); assay: Electrophysiological test in Xenopus oocytes expressing only the .zeta.1 subunit; settings: 100 μM NMDA and 10 μM glycine, n=7
Procedure: Then, by using the pBKSA ε1 cut by NotI as a template and using T3 RNA polymerase produced by BRL Co., ε1-specific mRNAs were synthesized in vitro. Transcription was carried out in a solution containing ATP, TTP and CTP at a concentration of 0.5 mM, respectively and 0.1 mM GTP in the presence of 0.5 mM dinucleotide 7mGpppG having a cap structure (in which 2 Gs were linked at 5' and 7-site of one guanine was methylated, produced by P-L Biochemicals Co.). One or both of ε1 subunit-specific mRNAs and .zeta.1.NMDA type glutamate receptor subunit-specific mRNAs (mRNAs derived from mice, coding an amino acid sequence different in the 213rd (Glu→Asp) and the 460th (Ile→Val) from the N terminal end from the amino acid sequence which is coded by cDNA.-NMDA R1 of a rat-NMDA type glutamate receptor cloned by Nakanishi et al. ("Nature", 354, pp. 31 to 37 (1991))) were injected into Xenopus oocytes.
as §6
The electrophysiological test was carried out by a conventional micropipet voltage clamp method. […] First, while a frog standard Ringer's solution (115 mM NaCl, 2.5 mM KCl, 1.8 mM CaCl2 and 10 mM HEPES-NaOH (pH: 7.2)) was flown in a chamber, 2 glass microelectrodes charged with 3M KCl were stuck in the oocytes, and the membrane potential was fixed to -70 mV. In these oocytes, an agonist (NMDA) is linked to a glutamate receptor expressed on a cell membrane and an ion channel is opened, the oocytes have an action of returning membrane potential to an original value, whereby inflow and outflow of ions are caused. In the present experiment system, flow of these ions were detected, and opening and closing of the ion channel were observed.
The ε1 subunit-specific mRNAs synthesized from the cloned cDNAs in vitro were injected into the Xenopus oocytes. […]

[14] = (+)-MK-801, continuous application
[15] = Ba^2+ Ringer's solution, dose-reaction curve

ε4/.zeta.1 heteromeric NMDA receptor channel, sequence (Q03391 28-1323, other chains not shown): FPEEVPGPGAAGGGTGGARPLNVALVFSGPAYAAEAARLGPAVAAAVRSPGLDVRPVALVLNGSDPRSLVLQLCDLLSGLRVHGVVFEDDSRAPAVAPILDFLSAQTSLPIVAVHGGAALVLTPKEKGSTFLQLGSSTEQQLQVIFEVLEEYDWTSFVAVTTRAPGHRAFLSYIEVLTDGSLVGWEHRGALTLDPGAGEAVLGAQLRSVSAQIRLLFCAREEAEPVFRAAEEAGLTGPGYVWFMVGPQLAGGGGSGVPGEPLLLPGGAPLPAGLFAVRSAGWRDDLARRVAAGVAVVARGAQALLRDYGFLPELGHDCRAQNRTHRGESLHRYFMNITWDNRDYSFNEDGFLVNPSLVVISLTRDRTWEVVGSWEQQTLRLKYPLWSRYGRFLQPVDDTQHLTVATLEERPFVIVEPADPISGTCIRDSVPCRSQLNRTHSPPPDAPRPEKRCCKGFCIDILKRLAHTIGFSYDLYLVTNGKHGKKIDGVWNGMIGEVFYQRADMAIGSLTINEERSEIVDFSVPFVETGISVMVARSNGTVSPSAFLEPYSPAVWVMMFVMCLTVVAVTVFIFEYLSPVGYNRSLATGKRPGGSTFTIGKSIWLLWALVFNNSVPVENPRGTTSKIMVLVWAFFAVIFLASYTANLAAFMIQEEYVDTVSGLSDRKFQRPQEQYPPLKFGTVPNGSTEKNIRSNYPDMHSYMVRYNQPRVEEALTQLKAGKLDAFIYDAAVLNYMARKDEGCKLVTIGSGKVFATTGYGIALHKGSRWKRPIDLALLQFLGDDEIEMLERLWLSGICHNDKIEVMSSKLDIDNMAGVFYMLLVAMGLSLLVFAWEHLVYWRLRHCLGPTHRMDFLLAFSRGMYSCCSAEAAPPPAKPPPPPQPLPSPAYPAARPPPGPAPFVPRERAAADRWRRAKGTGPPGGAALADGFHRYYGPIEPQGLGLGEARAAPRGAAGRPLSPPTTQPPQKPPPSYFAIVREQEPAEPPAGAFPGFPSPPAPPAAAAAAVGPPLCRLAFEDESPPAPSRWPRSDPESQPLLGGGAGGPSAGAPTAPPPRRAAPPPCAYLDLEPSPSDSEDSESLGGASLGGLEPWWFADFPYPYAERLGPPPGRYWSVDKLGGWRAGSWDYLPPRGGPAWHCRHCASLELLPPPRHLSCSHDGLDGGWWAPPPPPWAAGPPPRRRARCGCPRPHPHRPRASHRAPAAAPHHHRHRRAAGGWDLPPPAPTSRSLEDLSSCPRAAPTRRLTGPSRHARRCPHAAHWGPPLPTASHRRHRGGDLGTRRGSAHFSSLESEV
ε3/.zeta.1 heteromeric NMDA receptor channel, sequence (Q01098 20-1239, other chains not shown): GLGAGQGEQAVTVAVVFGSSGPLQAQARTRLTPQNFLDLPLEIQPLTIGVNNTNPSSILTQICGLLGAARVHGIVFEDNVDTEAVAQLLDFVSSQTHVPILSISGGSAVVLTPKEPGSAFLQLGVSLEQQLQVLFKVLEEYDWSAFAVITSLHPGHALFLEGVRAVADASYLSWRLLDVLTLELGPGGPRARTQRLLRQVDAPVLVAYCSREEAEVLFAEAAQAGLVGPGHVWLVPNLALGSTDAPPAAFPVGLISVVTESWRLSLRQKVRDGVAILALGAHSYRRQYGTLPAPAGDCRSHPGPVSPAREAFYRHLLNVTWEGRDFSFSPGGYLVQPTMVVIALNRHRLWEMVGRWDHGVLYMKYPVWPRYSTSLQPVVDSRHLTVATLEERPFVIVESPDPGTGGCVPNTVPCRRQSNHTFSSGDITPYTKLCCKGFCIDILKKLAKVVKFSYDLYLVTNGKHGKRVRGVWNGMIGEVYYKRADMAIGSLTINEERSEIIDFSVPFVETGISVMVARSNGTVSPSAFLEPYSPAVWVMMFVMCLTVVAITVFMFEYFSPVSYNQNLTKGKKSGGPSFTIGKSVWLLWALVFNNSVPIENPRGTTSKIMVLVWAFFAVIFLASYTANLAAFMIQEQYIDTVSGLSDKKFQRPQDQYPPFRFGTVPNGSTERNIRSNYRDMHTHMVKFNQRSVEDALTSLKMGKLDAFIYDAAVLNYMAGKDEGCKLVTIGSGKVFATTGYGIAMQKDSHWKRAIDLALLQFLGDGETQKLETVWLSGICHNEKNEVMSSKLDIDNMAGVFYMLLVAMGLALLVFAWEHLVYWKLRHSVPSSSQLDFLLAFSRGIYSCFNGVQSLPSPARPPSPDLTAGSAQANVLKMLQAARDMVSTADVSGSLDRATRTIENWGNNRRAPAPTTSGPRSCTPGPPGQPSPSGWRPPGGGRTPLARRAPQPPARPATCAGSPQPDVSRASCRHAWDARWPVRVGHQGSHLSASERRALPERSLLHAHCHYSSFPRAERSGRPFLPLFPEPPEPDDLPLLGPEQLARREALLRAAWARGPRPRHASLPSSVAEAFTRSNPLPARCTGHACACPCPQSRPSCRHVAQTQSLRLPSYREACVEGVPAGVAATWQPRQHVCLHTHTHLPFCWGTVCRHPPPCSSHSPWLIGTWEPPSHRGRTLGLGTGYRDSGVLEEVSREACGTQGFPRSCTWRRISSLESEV
T2 sequence (P35436 23-1464 S384R, other chains not shown): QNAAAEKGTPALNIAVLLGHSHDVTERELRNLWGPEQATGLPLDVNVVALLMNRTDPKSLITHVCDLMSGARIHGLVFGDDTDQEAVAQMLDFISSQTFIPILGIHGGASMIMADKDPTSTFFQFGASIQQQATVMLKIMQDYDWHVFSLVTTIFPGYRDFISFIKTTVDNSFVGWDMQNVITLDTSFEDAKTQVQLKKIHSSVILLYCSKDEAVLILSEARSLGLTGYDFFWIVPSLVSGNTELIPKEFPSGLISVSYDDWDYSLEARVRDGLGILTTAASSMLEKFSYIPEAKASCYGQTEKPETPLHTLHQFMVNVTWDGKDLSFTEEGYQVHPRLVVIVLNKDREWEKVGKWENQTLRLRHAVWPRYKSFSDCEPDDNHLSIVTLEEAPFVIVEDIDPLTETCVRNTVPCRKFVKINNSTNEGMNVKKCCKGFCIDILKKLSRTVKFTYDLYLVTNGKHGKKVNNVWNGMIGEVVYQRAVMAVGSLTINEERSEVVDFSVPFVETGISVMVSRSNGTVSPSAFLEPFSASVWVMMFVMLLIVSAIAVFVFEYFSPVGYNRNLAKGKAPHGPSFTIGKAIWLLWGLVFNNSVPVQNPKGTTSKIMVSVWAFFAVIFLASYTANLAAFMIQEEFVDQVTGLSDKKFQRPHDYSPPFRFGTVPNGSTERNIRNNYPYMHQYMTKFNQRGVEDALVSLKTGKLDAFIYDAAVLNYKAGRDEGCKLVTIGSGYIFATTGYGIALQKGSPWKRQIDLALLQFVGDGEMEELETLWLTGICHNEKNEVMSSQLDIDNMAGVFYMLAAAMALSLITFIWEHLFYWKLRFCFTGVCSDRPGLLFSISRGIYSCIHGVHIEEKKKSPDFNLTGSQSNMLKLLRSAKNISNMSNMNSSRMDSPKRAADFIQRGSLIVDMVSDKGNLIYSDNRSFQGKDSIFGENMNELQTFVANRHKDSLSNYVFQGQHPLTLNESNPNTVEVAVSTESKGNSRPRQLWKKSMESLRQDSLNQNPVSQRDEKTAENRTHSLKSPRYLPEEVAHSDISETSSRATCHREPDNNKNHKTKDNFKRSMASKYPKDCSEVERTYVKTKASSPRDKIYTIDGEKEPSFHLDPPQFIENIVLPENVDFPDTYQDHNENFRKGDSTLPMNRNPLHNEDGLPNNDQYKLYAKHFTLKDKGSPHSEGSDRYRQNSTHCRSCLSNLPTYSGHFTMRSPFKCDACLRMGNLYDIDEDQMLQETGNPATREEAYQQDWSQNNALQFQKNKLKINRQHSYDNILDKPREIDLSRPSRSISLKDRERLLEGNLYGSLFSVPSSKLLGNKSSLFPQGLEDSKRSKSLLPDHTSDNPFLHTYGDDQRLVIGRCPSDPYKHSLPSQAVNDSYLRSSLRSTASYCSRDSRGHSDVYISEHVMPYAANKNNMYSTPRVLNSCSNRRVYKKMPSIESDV

N[C@@H](CC(=O)O)C(=O)O [L-aspartic acid]
response to agonist alone [1]: showed a response

N[C@@H](CCC(=O)O)C(=O)O [L-glutamate]
EC50 [2]: 1700 nM | response of oocytes injected singly [3]: < 1 nA | response of oocytes injected singly [4]: < 1 nA

O=C(O)c1cc(O)c2ccc(Cl)cc2n1 [7 CK, 7-chlorokynurenate]
effect on response to 10 μM L-glutamate and 10 μM glycine [1]: suppressed | effect on response to 10 μM L-glutamate or 10 μM glycine alone [1]: disappeared | effect on response to 10 μM L-glutamate or 10 μM glycine alone ([5]; 100 μM APV, 30 μM 7 CK): disappeared | effect on response to 10 μM L-glutamate and 10 μM glycine ([5]; competitive antagonists, 100 μM Mg^2+, 100 μM Zn^2+, 1 μM (+)-MK-801): suppressed | decrease of channel activity ([6]; 100 μM APV or 3 μM 7 CK, response to 4.7 μM L-glutamate + 0.9 μM glycine, Ba^2+ Ringer's solution, -70 mV): 34% | effect on response to 10 μM L-glutamate and 10 μM glycine ([6]; 500 μM APV or 100 μM 7 CK): suppressed | degree of inhibition ([6]; compared with other ε/.xi. channels under the same conditions): smaller than those of the other ε/.xi. channels | order of strength in sensitivity to competitive antagonist [7]: ε3/.xi.1>ε2/.xi.1>ε1/.xi.1 | order of sensitivity to competitive antagonist ([8]; 10-fold concentration of EC50 value): ε3/.xi.1>ε2/.xi.1>ε1/.xi.1=ε4/.xi.1

C[C@]12N[C@H](Cc3ccccc31)c1ccccc12 [(+)-MK-801]
effect on response to 10 μM L-glutamate and 10 μM glycine [1]: suppressed | inhibition of current response [1]: strongly inhibited | suppression after repetitive application [1]: suppressed almost completely | effect on response to 10 μM L-glutamate and 10 μM glycine [5]: suppressed | inhibition of current response ([9]; 1 mM Mg^2+, 100 μM Zn^2+, 1 μM (+)-MK-801, frog standard Ringer's, -70 mV, 10 μM L-glutamate + 10 μM glycine): suppressed effectively | suppression after repetitive application [9, 14]: strongly inhibited | suppression after repetitive application [10, 14]: strongly inhibited | sensitivity to inhibition / current response ([10]; Mg^2+, Zn^2+, repetitive (+)-MK-801, frog standard Ringer's, -70 mV, 10 μM L-glutamate + 10 μM glycine): showed a great current response after repetitive application of (+)-MK-801 | suppression after repetitive application ([11]; (+)-MK-801 applied three times repeatedly): retained high activities | resistance / sensitivity to inhibition ([11]; Mg^2+, Zn^2+, (+)-MK-801, frog standard Ringer's, -70 mV, 10 μM L-glutamate + 10 μM glycine): strong resistance

NCC(=O)O [glycine]
EC50 ([2]; Ba^2+ Ringer's solution, dose-reaction curve, read-out: EC50): 2100 nM | response to agonist alone [1]: showed a response | EC50 [1, 15]: 300 nM | response to agonist alone [5]: showed a response only to 10 μM glycine | EC50 [5, 15]: 200 nM | EC50 [6]: 90 nM | Hill coefficient ([6]; Ba^2+ Ringer's solution, -70 mV): 1.2 | order of strength in affinity to agonist ([8]; Ba^2+ Ringer's solution): ε4/.xi.1>ε3/.xi.1>ε2/.xi.1

C=C(C)[C@H]1CN[C@H](C(=O)O)[C@H]1CC(=O)O [kainate]
response to kainate / AMPA [1]: less than the measurement limit | response to kainate / AMPA [5]: less than the measurement limit

CN[C@H](CC(=O)O)C(=O)O [NMDA, N-methyl-D-aspartic acid]
current amplitude ([2]; 100 μM NMDA and 10 μM glycine, Ba^2+ Ringer's solution, n=7): 57±3 nA | inward current ([2]; 100 μM NMDA and 10 μM glycine, frog standard Ringer's solution, -70 mV, n=7): 175±30 nA | inward current [1]: 546±172 nA | inward current [5]: 89±22 nA | inward current ([6]; 100 μM NMDA and 10 μM glycine, frog standard Ringer's solution, -70 mV, n=8): 68±13 nA | reaction of injected oocytes [12]: did not show any reaction | response of oocytes injected singly [3]: < 1 nA | response of oocytes injected singly [4]: < 1 nA | current amplitude ([13]; Ba^2+ Ringer's solution): 1±0.2 nA | current amplitude ([13]; Example 1, frog standard Ringer's solution, -70 mV): 6±1 nA | current amplitude ([13]; Example 2): 9±2 nA | current amplitude ([13]; Example 3): 13±2 nA

Cc1onc(O)c1CC(N)C(=O)O (centres unmarked) [AMPA]
response to kainate / AMPA [1]: less than the measurement limit | response to kainate / AMPA [5]: less than the measurement limit
